Key:
ERRγ = target: T1, ERRγ (Homo sapiens, UniProt P62508); assay: ERRE luciferase reporter assay in HEK293 cells transfected with pcDNA3.1 ERRγ; format: cell-based; set-up: key to EC50 (ERRγ): ***<1 μM; **1-5 μM; *>5 μM; i.a. (inactive); conditions: 24 hours treatment, luciferase activity
T1 construct: expressed in transfected cells; host or cells: HEK293
T1 sequence (P62508 1-458): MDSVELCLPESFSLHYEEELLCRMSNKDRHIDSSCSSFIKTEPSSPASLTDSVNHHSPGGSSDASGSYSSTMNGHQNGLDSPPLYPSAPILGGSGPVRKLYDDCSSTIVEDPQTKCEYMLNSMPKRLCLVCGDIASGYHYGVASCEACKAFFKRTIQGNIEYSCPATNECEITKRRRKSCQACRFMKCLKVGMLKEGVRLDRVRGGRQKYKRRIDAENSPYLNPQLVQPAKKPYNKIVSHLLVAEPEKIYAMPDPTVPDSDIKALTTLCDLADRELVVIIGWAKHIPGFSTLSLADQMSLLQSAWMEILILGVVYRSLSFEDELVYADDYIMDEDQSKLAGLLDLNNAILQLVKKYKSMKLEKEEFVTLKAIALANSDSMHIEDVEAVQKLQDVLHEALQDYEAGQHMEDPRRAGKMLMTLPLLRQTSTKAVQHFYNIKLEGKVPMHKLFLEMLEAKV
Experimental: (§1) HEK293 cells were maintained in Dulbecco's modified Eagles medium (DMEM) supplemented with 10% fetal bovine serum at 37° C. under 5% CO2. […] Cells were transfected with ERRE reporter construct and pcDNA3.1 ERRα or ERRγ. Twenty-four-hours post-transfection, the cells were treated with vehicle or compound (various concentrations) for 24 hours (4 wells per dose). Luciferase activity was measured using the One-Glo Tox luciferase reporter assay system (Promega) and […] were calculated using GraphPad Prism software.

ERRα = target: T2, ERRα (Homo sapiens, UniProt P11474); assay: ERRE luciferase reporter assay in HEK293 cells transfected with pcDNA3.1 ERRα; format: cell-based; set-up: key to EC50 (ERRα): ***<1 μM; **1-5 μM; *>5 μM; i.a. (inactive); conditions: 24 hours treatment, luciferase activity
T2 construct: expressed in transfected cells; host or cells: HEK293
T2 sequence (P11474 1-423): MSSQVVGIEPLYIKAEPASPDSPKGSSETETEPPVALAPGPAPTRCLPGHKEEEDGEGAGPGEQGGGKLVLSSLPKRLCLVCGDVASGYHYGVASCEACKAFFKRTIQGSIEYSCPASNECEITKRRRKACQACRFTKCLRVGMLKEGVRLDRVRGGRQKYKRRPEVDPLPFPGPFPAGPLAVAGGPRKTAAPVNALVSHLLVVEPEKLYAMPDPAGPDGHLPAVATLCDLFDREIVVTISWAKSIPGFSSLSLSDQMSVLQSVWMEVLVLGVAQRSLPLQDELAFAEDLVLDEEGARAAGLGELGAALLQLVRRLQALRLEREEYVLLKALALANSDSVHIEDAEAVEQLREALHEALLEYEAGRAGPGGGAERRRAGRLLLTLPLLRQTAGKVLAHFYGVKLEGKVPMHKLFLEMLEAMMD
Experimental: as §1

Row | EC50 (ERRγ) | EC50 (ERRα) | EC50 (ERRα) (ERRα) | EC50 (ERRγ) (ERRγ) | SMILES
1 | > 5 µM | > 5 µM |  |  | Brc1cccc(C2=NNC(c3ccc4ccccc4c3)C2)c1 (stereo not drawn) [Entry 86, 3-(3-bromophenyl)-5-(naphthalen-2-yl)-4,5-dihydro-1H-pyrazole]
2 | > 5 µM | 1 to 5 µM |  |  | Oc1cccc(C2CC(c3ccc(F)cc3)=NN2)c1 (stereo not drawn) [Entry 87, 3-(3-(4-fluorophenyl)-4,5-dihydro-1H-pyrazol-5-yl)phenol]
3 | 1 to 5 µM |  | i.a. |  | Fc1cccc(C2=NNC(c3ccc4ccccc4c3)C2)c1 (stereo not drawn) [Entry 88, 3-(3-fluorophenyl)-5-(naphthalen-2-yl)-4,5-dihydro-1H-pyrazole]
4 | > 5 µM | > 5 µM |  |  | Oc1ccc(C2=NNC(c3ccc(Br)cc3)C2)cc1 (stereo not drawn) [Entry 89, 4-(5-(4-bromophenyl)-4,5-dihydro-1H-pyrazol-3-yl)phenol]
5 | 1 to 5 µM | 1 to 5 µM |  |  | Oc1cccc(C2CC(c3ccccc3F)=NN2)c1 (stereo not drawn) [Entry 90, 3-(3-(2-fluorophenyl)-4,5-dihydro-1H-pyrazol-5-yl)phenol]
6 |  |  | i.a. | i.a. | Fc1ccc(C2=NNC(c3ccc4ccccc4c3)C2)cc1 (stereo not drawn) [Entry 91, 3-(4-fluorophenyl)-5-(naphthalen-2-yl)-4,5-dihydro-1H-pyrazole]
7 | 1 to 5 µM | > 5 µM |  |  | Oc1ccccc1C1=NNC(c2ncc[nH]2)C1 (stereo not drawn) [Entry 92, 2-(5-(1H-imidazol-2-yl)-4,5-dihydro-1H-pyrazol-3-yl)phenol]
8 |  |  | i.a. | i.a. | Oc1ccc2cc(C3CC(c4ccc(Br)cc4)=NN3)ccc2c1 (stereo not drawn) [Entry 93, 6-(3-(4-bromophenyl)-4,5-dihydro-1H-pyrazol-5-yl)naphthalen-2-ol]
9 |  | 1 to 5 µM |  | i.a. | Oc1cccc(C2=NNC(c3ccc4cc(O)ccc4c3)C2)c1 (stereo not drawn) [Entry 94, 6-(3-(3-hydroxyphenyl)-4,5-dihydro-1H-pyrazol-5-yl)naphthalen-2-ol]
10 | 1 to 5 µM | < 1 µM |  |  | Oc1ccccc1C1=NNC(c2ccc(Br)cc2)C1 (stereo not drawn) [Entry 95, 2-(5-(4-bromophenyl)-4,5-dihydro-1H-pyrazol-3-yl)phenol]
11 | > 5 µM | 1 to 5 µM |  |  | Oc1cccc(C2=NNC(c3ccccc3O)C2)c1 (stereo not drawn) [Entry 96, 2-(3-(3-hydroxyphenyl)-4,5-dihydro-1H-pyrazol-5-yl)phenol]
12 | 1 to 5 µM | 1 to 5 µM |  |  | Oc1cccc(C2CC(c3cccc(Br)c3)=NN2)c1 (stereo not drawn) [Entry 97, 3-(3-(3-bromophenyl)-4,5-dihydro-1H-pyrazol-5-yl)phenol]
13 |  |  | i.a. | i.a. | Oc1ccc2cc(C3CC(c4ccc(Cl)cc4)=NN3)ccc2c1 (stereo not drawn) [Entry 98, 6-(3-(4-chlorophenyl)-4,5-dihydro-1H-pyrazol-5-yl)naphthalen-2-ol]
14 | 1 to 5 µM | 1 to 5 µM |  |  | Oc1cccc(C2=NNC(c3ccc4ccccc4c3)C2)c1 (stereo not drawn) [Entry 99, 3-(5-(naphthalen-2-yl)-4,5-dihydro-1H-pyrazol-3-yl)phenol]
15 | 1 to 5 µM | 1 to 5 µM |  |  | Oc1ccc(C2CC(c3cccc(O)c3)=NN2)cc1 (stereo not drawn) [Entry 100, 3-(5-(4-hydroxyphenyl)-4,5-dihydro-1H-pyrazol-3-yl)phenol]
16 | < 1 µM | < 1 µM |  |  | Clc1ccccc1C1=NNC(c2ccc3ccccc3c2)C1 (stereo not drawn) [Entry 101, 3-(2-chlorophenyl)-5-(naphthalen-2-yl)-4,5-dihydro-1H-pyrazole]
17 | > 5 µM | > 5 µM |  |  | Oc1cccc(C2=NNC(c3cnc[nH]3)C2)c1 (stereo not drawn) [Entry 102, 3-(5-(1H-imidazol-5-yl)-4,5-dihydro-1H-pyrazol-3-yl)phenol]
18 |  |  | i.a. | i.a. | Oc1ccccc1C1CC(c2ccccc2C(F)(F)F)=NN1 (stereo not drawn) [Entry 103, 2-(3-(2-(trifluoromethyl)phenyl)-4,5-dihydro-1H-pyrazol-5-yl)phenol]

Row | EC50 (ERRγ) | EC50 (ERRα) | EC50 (ERRα) (ERRα) | EC50 (ERRγ) (ERRγ) | SMILES
19 |  |  | i.a. | i.a. | Clc1ccc(C2=NNC(c3ccc4ccccc4c3)C2)cc1 (stereo not drawn) [Entry 104, 3-(4-chlorophenyl)-5-(naphthalen-2-yl)-4,5-dihydro-1H-pyrazole]
20 | > 5 µM | > 5 µM |  |  | Cc1nc[nH]c1C1CC(c2ccc(Br)cc2)=NN1 (stereo not drawn) [Entry 105, 3-(4-bromophenyl)-5-(4-methyl-1H-imidazol-5-yl)-4,5-dihydro-1H-pyrazole]
21 | < 1 µM | < 1 µM |  |  | Fc1ccccc1C1=NNC(c2ccc3ccccc3c2)C1 (stereo not drawn) [Entry 106, 3-(2-fluorophenyl)-5-(naphthalen-2-yl)-4,5-dihydro-1H-pyrazole]
22 | 1 to 5 µM | 1 to 5 µM |  |  | Oc1ccc2cc(C3CC(c4ccccc4F)=NN3)ccc2c1 (stereo not drawn) [Entry 107, 6-(3-(2-fluorophenyl)-4,5-dihydro-1H-pyrazol-5-yl)naphthalen-2-ol]
23 | 1 to 5 µM | 1 to 5 µM |  |  | Oc1cccc(C2=NNC(c3ccc(Br)cc3)C2)c1 (stereo not drawn) [Entry 108, 3-(5-(4-bromophenyl)-4,5-dihydro-1H-pyrazol-3-yl)phenol]
24 |  |  | i.a. | i.a. | Fc1ccccc1C1=NNC(c2ccc(Cl)c(Cl)c2)C1 (stereo not drawn) [Entry 110, 5-(3,4-dichlorophenyl)-3-(2-fluorophenyl)-4,5-dihydro-1H-pyrazole]
25 |  |  | i.a. | i.a. | Clc1ccc(C2CC(c3ccccc3Br)=NN2)cc1Cl (stereo not drawn) [Entry 111, 3-(2-bromophenyl)-5-(3,4-dichlorophenyl)-4,5-dihydro-1H-pyrazole]
26 |  |  | i.a. | i.a. | Clc1ccc(C2=NNC(c3ccc(Br)cc3)C2)cc1 (stereo not drawn) [Entry 112, 5-(4-bromophenyl)-3-(4-chlorophenyl)-4,5-dihydro-1H-pyrazole]
27 |  |  | i.a. | i.a. | Brc1ccc(C2=NNC(c3ccc(Br)cc3)C2)cc1 (stereo not drawn) [Entry 113, 3,5-bis(4-bromophenyl)-4,5-dihydro-1H-pyrazole]
28 |  |  | i.a. | i.a. | FC(F)(F)c1ccc(C2=NNC(c3ccc(Br)cc3)C2)cc1 (stereo not drawn) [Entry 114, 5-(4-bromophenyl)-3-(4-(trifluoromethyl)phenyl)-4,5-dihydro-1H-pyrazole]
29 |  |  | i.a. | i.a. | CC(C)(C)c1cc(C2CC(c3ccc(Br)cc3)=NN2)c(O)c(C(C)(C)C)c1 (stereo not drawn) [Entry 115, 2-(3-(4-bromophenyl)-4,5-dihydro-1H-pyrazol-5-yl)-4,6-di-tert-butylphenol]
30 |  |  | i.a. | i.a. | Oc1c(Br)cc(Br)cc1C1CC(c2ccc3ccccc3c2)=NN1 (stereo not drawn) [Entry 116, 2,4-dibromo-6-(3-(naphthalen-2-yl)-4,5-dihydro-1H-pyrazol-5-yl)phenol]
31 |  |  | i.a. | i.a. | COc1ccc(C2=NNC(c3cc(Br)cc(Br)c3O)C2)cc1 (stereo not drawn) [Entry 117, 2,4-dibromo-6-(3-(4-methoxyphenyl)-4,5-dihydro-1H-pyrazol-5-yl)phenol]
32 |  |  | i.a. | i.a. | Oc1cc(Br)ccc1C1CC(c2ccc(Br)cc2)=NN1 (stereo not drawn) [Entry 118, 5-bromo-2-(3-(4-bromophenyl)-4,5-dihydro-1H-pyrazol-5-yl)phenol]
33 |  |  | i.a. | i.a. | Oc1cc(Br)ccc1C1CC(c2ccc(C(F)(F)F)cc2)=NN1 (stereo not drawn) [Entry 119, 5-bromo-2-(3-(4-(trifluoromethyl)phenyl)-4,5-dihydro-1H-pyrazol-5-yl)phenol]
34 | > 5 µM | > 5 µM |  |  | Oc1ccccc1C1=NNC(c2ccc(Br)cc2O)C1 (stereo not drawn) [Entry 120, 5-bromo-2-(3-(2-hydroxyphenyl)-4,5-dihydro-1H-pyrazol-5-yl)phenol]
35 | 1 to 5 µM | 1 to 5 µM |  |  | Oc1ccccc1C1CC(c2cccc(Cl)c2)=NN1 (stereo not drawn) [Entry 142, 2-(3-(3-chlorophenyl)-4,5-dihydro-1H-pyrazol-5-yl)phenol]

Row | SMILES | EC50 (ERRγ) | EC50 (ERRα) | EC50 (ERRα) (ERRα) | EC50 (ERRγ) (ERRγ)
36 | Oc1ccccc1C1=NNC(c2c[nH]cn2)C1 (stereo not drawn) [Entry 109, 2-(5-(1H-imidazol-4-yl)-4,5-dihydro-1H-pyrazol-3-yl)phenol] |  |  | i.a. | i.a.
